In one test the test system is MCF-7 cells. The test can be described thus: Breast cancer cell line proliferation inhibitory activity (CellTiter-Glo 2.0). It counts as cell-based. To be noted: Homo sapiens, MCF7, 120 hours. The method, boiled down:
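MCF-7 cells exposed to a 12-point, 3-fold dilution series (final 0.00005–10 μM) for 120 h at 37 °C. Viability read by CellTiter-Glo 2.0 luminescence, expressed as percent of vehicle-treated cells. GI50 (nM) derived from the curves.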
A general note: Cellular ATP, detected with luciferase, serves as a proxy for viable cell number.

The next test concerns the target T1, human GST-HPK1 (1-346) (Homo sapiens, UniProt Q92918).
T1 construct: purified human GST-HPK1 (1-346, Signalchem) enzyme; purchased Signalchem
T1 sequence (Q92918 1-346): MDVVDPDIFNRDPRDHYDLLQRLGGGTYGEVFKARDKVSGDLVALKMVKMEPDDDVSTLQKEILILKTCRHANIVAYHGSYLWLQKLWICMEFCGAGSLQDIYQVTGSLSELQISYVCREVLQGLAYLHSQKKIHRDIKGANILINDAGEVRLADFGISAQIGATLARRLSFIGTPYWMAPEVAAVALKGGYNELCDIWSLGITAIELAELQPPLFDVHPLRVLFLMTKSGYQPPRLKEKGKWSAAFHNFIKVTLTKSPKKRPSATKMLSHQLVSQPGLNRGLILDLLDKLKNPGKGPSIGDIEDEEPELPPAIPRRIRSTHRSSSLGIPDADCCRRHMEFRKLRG
The test is described as follows: HPK1 enzyme inhibitory ability (ADP-Glo kinase assay). To be noted: human GST-HPK1 3 ng, ATP 3 uM, 25° C. 2 hours. It counts as biochemical. In a few lines:
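Human GST-HPK1(1-346), 3 ng, reacted with 3 uM ATP and specific substrate in 40 mM Tris-HCl pH 7.4, 20 mM MgCl2, 0.5 mg/mL BSA, 50 uM DTT for 2 h at 25° C. ADP-Glo luminescence read; IC50 (nM) relative to untreated solvent control.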

A further test has as its target T2, human FLT3-ITD enzyme (Homo sapiens, UniProt P36888).
T2 sequence (P36888 1-993): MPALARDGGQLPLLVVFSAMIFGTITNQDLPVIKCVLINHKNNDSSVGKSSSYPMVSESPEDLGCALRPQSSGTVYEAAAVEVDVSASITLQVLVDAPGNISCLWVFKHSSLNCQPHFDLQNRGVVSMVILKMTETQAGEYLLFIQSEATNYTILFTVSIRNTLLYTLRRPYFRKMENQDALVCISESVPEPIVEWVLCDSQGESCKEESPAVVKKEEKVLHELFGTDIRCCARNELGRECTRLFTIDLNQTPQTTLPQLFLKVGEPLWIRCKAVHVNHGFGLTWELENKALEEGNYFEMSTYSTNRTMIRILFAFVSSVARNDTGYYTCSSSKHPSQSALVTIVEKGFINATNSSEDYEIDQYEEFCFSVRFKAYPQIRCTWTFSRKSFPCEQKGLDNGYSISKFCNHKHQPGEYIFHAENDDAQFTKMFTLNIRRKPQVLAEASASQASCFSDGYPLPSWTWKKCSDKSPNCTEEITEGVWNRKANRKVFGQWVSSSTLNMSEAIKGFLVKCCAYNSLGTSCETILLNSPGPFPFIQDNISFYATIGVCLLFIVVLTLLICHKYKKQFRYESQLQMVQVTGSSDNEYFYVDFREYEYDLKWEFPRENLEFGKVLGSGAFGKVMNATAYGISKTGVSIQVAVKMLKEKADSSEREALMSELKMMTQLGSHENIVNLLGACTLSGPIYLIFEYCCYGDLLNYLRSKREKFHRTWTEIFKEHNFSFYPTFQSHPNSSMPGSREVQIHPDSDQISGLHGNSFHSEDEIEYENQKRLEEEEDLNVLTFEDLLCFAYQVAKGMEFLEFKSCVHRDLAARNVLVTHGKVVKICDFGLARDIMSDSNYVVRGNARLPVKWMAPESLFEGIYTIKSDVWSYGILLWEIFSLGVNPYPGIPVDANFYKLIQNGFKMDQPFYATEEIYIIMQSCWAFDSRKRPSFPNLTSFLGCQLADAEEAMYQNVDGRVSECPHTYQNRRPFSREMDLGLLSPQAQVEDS
The test can be described thus: FLT3 enzyme inhibitory ability (ADP-Glo kinase assay). It counts as biochemical. To be noted: human FLT3-ITD enzyme 10 ng, ATP 10 μM, 25° C. 1 hour. In a few lines:
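Purified human FLT3-ITD (10 ng) with 10 μM ATP and specific substrate in 40 mM Tris-HCl pH 7.4, 20 mM MgCl2, 0.5 mg/mL BSA, 50 μM DTT, 1 h at 25 °C. ADP formation read by ADP-Glo luminescence; IC50 (nM) versus solvent-treated control.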
On the technique in general: ADP-Glo first removes unused ATP, then detects ADP through luciferase.

In a further test the test system is MV4-11 cells. The test can be described thus: AML cell proliferation inhibitory activity (CellTiter-Glo). It counts as cell-based. The following applies: Homo sapiens, 72 hours. As to the method: The inhibitory activities of the example compounds according to the present invention on the proliferation of acute myeloid leukemia (AML) cells expressing the FLT3 mutant gene were evaluated. Specifically, RS4;11 and MV4-11 cells as acute myeloid leukemia cells expressing the FLT3 mutant gene were cultured in RPMI-1640 (Invitrogen) adding 10% FBS. The cells were seeded into each well of a clear bottom white 96-well plate (Corning) at 3000 to 5000 cells 24 hours before compound treatment. The compound was diluted in DMSO (diluted each three-fold, to a total of 12 concentrations) and injected at 0.5 μL each so as to be a final concentration of 0.3 nM to 50 μM. After 72 hours of the compound treatment, they were treated with CellTiter-Glo Luminescent Cell Viability assay (Promega) and stored at room temperature for 10 minutes, and luminescence intensities were measured with a reader (SynergyNeo, Biotek) to count viable cells. Each experiment was performed three times repeatedly. The result values were calculated as the cell growth rate (%) compared to the control treated with the solvent. The graph was derived using the GraphPad Prism program (version 5.0), the GI50 (nM) values were calculated, and the results were shown in Table 3 below.

Molecules are shown by their SMILES.

In general, GI50 refers to the concentration giving 50% growth inhibition. By IC50 is commonly meant the midpoint of a concentration-inhibition curve. Low readings indicate inhibition by little substance, high ones a need for much substance.

For `COc1cc(Nc2nc(N3OCC[C@H]3c3ccccc3)c3cc[nH]c3n2)ccc1N1CCC(N2CCN(C)CC2)CC1` [Example 87, (S)-N-(3-methoxy-4-(4-(4-methylpiperazin-1-yl)piperidin-1-yl)phenyl)-4-(3-phenylisoxazolidin-2-yl)-7H-pyrrolo[2,3-d]pyrimidin-2-amine], the GI50 in the test with MCF-7 cells is over 0.5 µM; in the test with MV4-11 cells, at least 0.25 µM. The IC50 against human GST-HPK1 (1-346) is at least 0.25 µM; against human FLT3-ITD enzyme, 0.25 to 0.5 µM.

`OCCN1CCN(C2CCN(c3ccc(Nc4nc(N5OCC[C@H]5c5ccccc5)c5cc[nH]c5n4)cc3)CC2)CC1` [Example 89, (S)-2-(4-(1-(4-((4-(3-phenylisoxazolidin-2-yl)-7H-pyrrolo[2,3-d]pyrimidin-2-yl)amino)phenyl)piperidin-4-yl)piperazin-1-yl)ethan-1-ol]: the 50% growth inhibitory concentration (GI50) was over 0.5 µM with MCF-7 cells and 0.25 to 0.5 µM in the test with MV4-11 cells. Besides, the values for the IC50 against human GST-HPK1 (1-346) and against human FLT3-ITD enzyme were at least 0.25 µM and 0.25 to 0.5 µM, respectively.

For `COc1cc(C(=O)N2CCOCC2)ccc1Nc1nc(N2OCC[C@H]2c2ccccc2)c2cc[nH]c2n1` [Example 96, (S)-(3-methoxy-4-((4-(3-phenylisoxazolidin-2-yl)-7H-pyrrolo[2,3-d]pyrimidin-2-yl)amino)phenyl)(morpholino)methanone], the GI50 in the test on MCF-7 cells and in the test with MV4-11 cells was over 0.5 µM each time. Moreover, the half-inhibitory concentration (IC50) at human GST-HPK1 (1-346) was over 0.5 µM; at human FLT3-ITD enzyme, at least 0.25 µM.

As for `CCN(CC)CCCOc1c(C)cc(Nc2nc(N3OCC[C@H]3c3ccccc3)c3cc[nH]c3n2)cc1C` [Example 101, (S)-N-(4-(3-(diethylamino)propoxy)-3,5-dimethylphenyl)-4-(3-phenylisoxazolidin-2-yl)-7H-pyrrolo[2,3-d]pyrimidin-2-amine], the GI50 in the test on MCF-7 cells and in the test with MV4-11 cells was over 0.5 µM throughout. The half-maximal inhibitory concentration (IC50) against human GST-HPK1 (1-346) and against human FLT3-ITD enzyme was at least 0.25 µM throughout.

In the case of `c1ccc([C@@H]2CCON2c2nc(Nc3ccc4c(c3)CNCC4)nc3[nH]ccc23)cc1` [Example 104, (S)-N-(4-(3-phenylisoxazolidin-2-yl)-7H-pyrrolo[2,3-d]pyrimidin-2-yl)-1,2,3,4-tetrahydroisoquinolin-7-amine], the GI50 in the test with MCF-7 cells and in the test with MV4-11 cells was over 0.5 µM in each case. In addition, the half-maximal inhibitory concentration (IC50) against human GST-HPK1 (1-346) and against human FLT3-ITD enzyme was at least 0.25 µM throughout.

Turning to `CN1CCc2ccc(Nc3nc(N4OCC[C@H]4c4ccccc4)c4cc[nH]c4n3)cc2C1` [Example 105, (S)-2-methyl-N-(4-(3-phenylisoxazolidin-2-yl)-7H-pyrrolo[2,3-d]pyrimidin-2-yl)-1,2,3,4-tetrahydroisoquinolin-7-amine], the GI50 in the test on MCF-7 cells is over 0.5 µM; with MV4-11 cells, 0.25 to 0.5 µM. Moreover, the half-inhibitory concentration (IC50) on human GST-HPK1 (1-346) and against human FLT3-ITD enzyme was at least 0.25 µM throughout.

`CN1CCc2cc(Nc3nc(N4OCC[C@H]4c4ccccc4)c4cc[nH]c4n3)ccc2C1` [Example 109, (S)-2-methyl-N-(4-(3-phenylisoxazolidin-2-yl)-7H-pyrrolo[2,3-d]pyrimidin-2-yl)-1,2,3,4-tetrahydroisoquinolin-6-amine]: the GI50 in the test with MCF-7 cells is over 0.5 µM; with MV4-11 cells it was at least 0.25 µM. In addition, the half-inhibitory concentration (IC50) on human GST-HPK1 (1-346) and at human FLT3-ITD enzyme was at least 0.25 µM throughout.

For `c1ccc([C@@H]2CCON2c2nc(Nc3ccc4c(c3)CCNC4)nc3[nH]ccc23)cc1` [Example 110, (S)-N-(4-(3-phenylisoxazolidin-2-yl)-7H-pyrrolo[2,3-d]pyrimidin-2-yl)-1,2,3,4-tetrahydroisoquinolin-6-amine], the GI50 in the test with MCF-7 cells is 0.25 to 0.5 µM; in the test on MV4-11 cells, over 0.5 µM. Moreover, the IC50 at human GST-HPK1 (1-346) and against human FLT3-ITD enzyme was at least 0.25 µM each time.

Turning to `CC(C)(O)CN1CCc2cc(Nc3nc(N4OCC[C@H]4c4ccccc4)c4cc[nH]c4n3)ccc2C1` [Example 111, (S)-2-methyl-1-(6-((4-(3-phenylisoxazolidin-2-yl)-7H-pyrrolo[2,3-d]pyrimidin-2-yl)amino)-3,4-dihydroisoquinolin-2(1H)-yl)propan-2-ol], the GI50 in the test on MCF-7 cells is over 0.5 µM; in the test with MV4-11 cells, at least 0.25 µM. The figures for the 50% inhibitory concentration (IC50) against human GST-HPK1 (1-346) and against human FLT3-ITD enzyme were at least 0.25 µM and 0.25 to 0.5 µM, respectively.
